Measured values published in a melting point compilation (Tetko et al.; mined from patent text by program, amines drawn as free bases though some values may be those of a salt).

With `CSc1c(C#N)nn(-c2c(Cl)cc(C(F)(F)F)cc2Br)c1N` the melting point was 178 to 180 °C. Work on `OCc1conc1-c1ccc(-c2ccccc2)cc1` yielded a melting point of 138 to 139 °C. Molecule `C=CCc1cc(Cc2cnc(N)nc2N)c2cccnc2c1OC` has a melting point of 227 to 228 °C. Molecule `Cc1nc(-c2cc(C(C)(C)C)c3c(c2)C(C)(C)CO3)no1` has a melting point of 81 to 82 °C. Molecule `CC1(c2ccccc2)OC(C=Cc2cccnc2)=CC1=O` (centres undefined) has a melting point of 106 to 108 °C. With `COC(=O)c1cc(C)cc(CNO)c1` the melting point was 99 to 100 °C. Work on `CCCOc1ccc2c(c1)C(=O)C[C@H]2c1ccc2c(c1)OCO2` yielded a melting point of 63 to 65 °C. `O=C1NC(=O)c2c1c(-c1ccccc1Cl)cc1c2c(Br)c(CO)n1CCCO` showed a melting point of 203 to 205 °C. For `CC1(c2cccc(OCc3ccccc3)c2)C(=O)Nc2cc(Cl)cc(Cl)c2C1=O` (centres undefined), the melting point was 201 to 203 °C. In the case of `CCOC(=O)/C=C/c1nc(-c2ccccc2)oc1COc1ccc(OCc2nc(-c3ccccc3)oc2C)cc1`, the melting point is reported as 107 to 108 °C. Work on `COC1(c2nc3ccccc3s2)C=CC(=O)C=C1` yielded a melting point of 123 °C. Work on `Cc1noc(NC(=O)N2CCN(c3nccc(-c4ccc(F)cc4)n3)CC2)c1C` yielded a melting point of 226 to 227 °C. In the case of `O=C1OC(=Nc2ccc(F)cc2F)C2=C1CCCC2`, the melting point is reported as 81 to 84 °C. In the case of `Cc1ccc(S(=O)(=O)n2c(-c3cn(C)c4ccc(C=O)cc34)cc3cccnc32)cc1`, the melting point is reported as 188 to 189 °C. Work on `CCN1C(=O)C(C)(C)C(=O)N(C)c2cc(CN(CCn3cc(C)c4occc4c3=O)Cc3cc(C)nn3C)ccc21` yielded a melting point of 193 to 195 °C. Work on `COP(=O)(Cc1ccc(-c2nc3ccccc3s2)cc1)OC` yielded a melting point of 130 °C. For `COC(=O)c1ccc(Cl)cc1NC(=O)CSc1ccc(NC(=O)Cc2ccccc2)cc1`, the melting point was 144 to 146 °C. `O=C(NC1CCC(CCN2CCC(c3cccc4c3CCO4)CC2)CC1)C1CCCO1` (racemic) showed a melting point of 160 °C. For `O=C(NC1CCN(CC(O)COc2cccc3ccccc23)CC1)c1ccccc1` (centres undefined), the melting point was 139 to 141 °C. `O=S(=O)(NCC(O)(Cn1cncn1)c1ccc(Cl)cc1Cl)c1cc(Cl)ccc1Cl` (centres undefined) gave a melting point of 173 to 174 °C. `CS(=O)(=O)c1ccc(-c2ccccc2CO)cc1` gave a melting point of 123 to 124 °C. `COC(=O)c1n[nH]c(=O)c2ccc(Cl)cc12` gave a melting point of 222 to 223 °C. With `O=C(O)CCCCCNC(=O)c1ccc(NC(=O)c2ccccc2O)cc1` the melting point was 201 to 203 °C. `O=P1(NCCBr)OCCCN1CCBr` (centres undefined) showed a melting point of 58 to 59 °C. `CCS(=O)(=O)NC(=O)CCCCC1CCSS1` (centres undefined) showed a melting point of 98 to 100 °C. `CC(CCC(F)(F)C(C)(C)O)C1CCC2C3CCC4CC(O)CCC4(C)C3CCC12C` (centres undefined) showed a melting point of 142 °C. `C[C@]1(COc2ccc(N3CCN(Cc4ccc(N5CCC(Oc6ccc(OC(F)(F)F)cc6)CC5)cc4)CC3)cc2)Cn2cc([N+](=O)[O-])nc2O1` gave a melting point of 198 to 201 °C. With `CC(C)(C(=O)NO)N(CCC(=O)O)S(=O)(=O)c1ccc(Oc2ccc(F)cc2)cc1` the melting point was 162 °C. `CCCCCCS(=O)(=O)c1nn2c(=O)cc(C)nc2s1` showed a melting point of 111 to 115 °C. Molecule `CCOC(=O)C1=C(C)NC(C)=C(C(=O)OC)C1c1ccc([N+](=O)[O-])cc1` (centres undefined) has a melting point of 150 °C. Molecule `O=C1N(CC2CCN(c3ccccn3)CC2)c2ccccc2C12COc1cc3c(cc12)OCO3` (centres undefined) has a melting point of 95 to 97 °C. For `CC(C)(OCc1nn(Cc2ccccc2)c2ccccc12)C(=O)NO`, the melting point was 115 to 116 °C. In the case of `COc1cc2c(c3c1OC(C)(C)C3)C(c1cccc(N3C(=O)c4ccccc4C3=O)c1)=NC(C)(C)C2`, the melting point is reported as 162 to 168 °C. For `ClCc1cccc2c(C3CCCCC3)nccc12`, the melting point was 88.4 to 89.4 °C. `Cc1cc(C)c(S(=O)(=O)NC(CN2CCCc3cc(C)ccc32)C(F)(F)F)c(C)c1` (centres undefined) gave a melting point of 143 to 144 °C. Molecule `CC(=O)NC(=Cc1ccccc1)C1=NC(=Cc2ccc(C)s2)C(=O)O1` has a melting point of 193 to 194 °C. With `O=C(COc1ccc(Cc2ccc(Cl)cc2)cc1)OCc1cccnc1` the melting point was 77 to 78 °C. `CCC1Cc2ccc(NC(=N)c3cccs3)cc2CN1C` (centres undefined) showed a melting point of 125 to 126 °C. Work on `CC(C)CC(CS)C(=O)N[C@H]1Cc2cn(c3ccccc23)CCCCCCNC1=O` (some centres undefined) yielded a melting point of 224 °C. Work on `CC(C)(C)ON=C1CC(=NOC(C)(C)C)c2ccccc2-c2ccccc21` yielded a melting point of 181 to 183 °C. `Cc1nc2cccc(OCC(C)(C)NC(=O)CC(C)C)c2c(N)c1C(=O)O` showed a melting point of 195 to 198 °C. Work on `CCOC(=O)Cn1c(-c2cc(Cl)ccn2)nc2cccnc21` yielded a melting point of 99 to 101 °C. With `N#Cc1ccc(C=NO)c(Cl)c1` the melting point was 177 to 179 °C. `Cc1cc(C(=O)Nc2nc(-c3ccoc3)c(C(=O)C3CCOCC3)s2)ccn1` gave a melting point of 202 to 204 °C. `CN(C)Cc1cc2c(cc1O)CCC1C2CCC2(C)C(=O)CCC12` (centres undefined) gave a melting point of 172 to 173 °C. `Cc1cn(C2CC2)c(=O)nc1NS(=O)(=O)c1ccc(N)cc1` showed a melting point of 134 to 136 °C. For `c1ccc2c(Cn3c(-c4ccc5c(c4)OCO5)nc4ccccc43)cccc2c1`, the melting point was 166 to 168 °C. Molecule `CN(O)C(=O)N1CCC(C(c2ccccc2)c2ccccc2)CC1` has a melting point of 143 to 144 °C. Molecule `CC(C)(C)NC(=O)[C@@H]1C[C@H](Br)CN1C(=O)[C@@H](O)[C@H](Cc1ccccc1)NC(=O)[C@H](CC(N)=O)NC(=O)OCc1ccccc1` has a melting point of 100 to 105 °C. Molecule `CS(=O)(=O)Nc1ccc(Nc2nc(NC3CCCC3)c3nc[nH]c3n2)cc1` has a melting point of 261 to 265 °C. Molecule `CCNCc1nc(-c2ncn3c2CN(C)C(=O)c2cc(F)ccc2-3)no1` has a melting point of 166 to 168 °C. With `CCOC(=O)c1cc(=O)c2cc3c(c(CC(O)CO)c2o1)CCCC3` (centres undefined) the melting point was 142 to 144 °C. Molecule `CCCCc1c2c(nc3cc(F)ccc13)-c1cc3c(c(=O)n1C2)COC(=O)CC3(O)CC` (centres undefined) has a melting point of 235 to 236 °C. Work on `O=c1[nH]c2cc(Br)ccc2c(O)c1-c1ccccc1` yielded a melting point of 343 to 345 °C. `COc1cc(NS(C)(=O)=O)cc(OC)c1-c1ccc(C[C@H](NC(=O)c2c(Cl)cccc2Cl)C(=O)O)cc1` gave a melting point of 154 to 155 °C. With `COC(=O)c1ccc(-c2nnc(-c3ccc(C(F)(F)F)cc3)s2)cc1` the melting point was 218 to 219 °C. For `CCn1ncc2c1ncc1c(=O)[nH]c3ncnn3c12`, the melting point was 175 to 177 °C. In the case of `O=C1c2c(Cl)cccc2-n2cnc(-c3nnc(-c4ccccc4)o3)c2[C@@H]2CCCN12`, the melting point is reported as 221 to 222 °C. With `CC(C)(C)c1ccc(-c2c(-c3ccncc3)sc3nc(=O)cc(N)n23)cc1` the melting point was 259 to 262 °C. `COc1ccccc1-c1cc2c(c(Br)cn2C)c2c1C(=O)NC2=O` showed a melting point of 216 to 220 °C. `CCOC(=O)c1csc(C2OC(CO)C(O)C2O)n1` (centres undefined) showed a melting point of 62 to 64 °C. Molecule `Cc1c(C)c2c(c(C)c1O)CC[C@](C)(C(=O)N[C@H]1CCOC1=O)O2` has a melting point of 195 to 196 °C. `CC(C)(C)c1cc(CCc2ccccc2NC(=O)NC(c2ccccc2)c2ccccc2)cc(C(C)(C)C)c1O` gave a melting point of 187 °C. `Cc1nc2n(C)ncn2c(=O)c1CCO` gave a melting point of 215 °C. `O=C(O)CCc1ccc(CNC(=O)OCC2c3ccccc3-c3ccccc32)cc1` showed a melting point of 164 to 166 °C. For `Nc1ccc(-c2c(-c3ccccc3)c(-c3ccccc3)c(-c3ccc(N)cc3)c(-c3ccccc3)c2-c2ccccc2)cc1`, the melting point was 453 °C. `CCCCCCCCCCCCc1ccccc1C(CC(=O)O)SCCC(=O)O` (centres undefined) showed a melting point of 55 to 56 °C. `Cc1ccc(-c2c(NS(=O)(=O)c3ccc(C(C)(C)C)cc3)ncnc2OCCOc2ccc(-c3nnn[nH]3)cc2)cc1` gave a melting point of 165 to 166 °C. With `N#CCN1CCN(c2cccccc2=O)CC1` the melting point was 133 to 135 °C. Molecule `CC(=S)NC[C@H]1CN(c2ccc(C3CCS(=O)(=O)N(C)C3)c(F)c2)C(=O)O1` (some centres undefined) has a melting point of 95 to 98 °C. Molecule `CC1(Cc2ccccc2)Cc2cc(O)c(Cl)c(Cl)c2C1=O` (centres undefined) has a melting point of 219 to 221 °C. `CC(=O)C(C)=Cc1sccc1C` showed a melting point of 72 °C. Molecule `C[C@H](O)c1nnc(-c2ccc3occ(-c4ccc(S(C)(=O)=O)cc4)c3c2)o1` has a melting point of 175 to 176 °C. `O=C1Cc2c(cc3ccccc3c2Cl)C(c2ccccc2F)N1` (centres undefined) gave a melting point of 206 to 209 °C. `CCOC(=O)Cc1cc2c(N)cccc2cn1` gave a melting point of 90 °C. Molecule `COC(=O)[C@H](Cc1ccc(O)c(C2SCCS2)c1)NC(C)=O` has a melting point of 97 to 99 °C. `Nc1c([N+](=O)[O-])cc(C(F)(F)F)cc1[N+](=O)[O-]` gave a melting point of 142 to 144 °C. With `COc1ccc(S(=O)(=O)N(CCNC(=O)NCc2ccccc2)c2ccc(C)cc2Cc2c(F)cccc2F)cc1OC` the melting point was 100 °C. Molecule `CCOC(=O)c1nnn(-c2ccccc2)c1N` has a melting point of 124 to 126 °C. In the case of `CC1(C)CCC(C)(C)c2cc3c(=O)ccoc3cc21`, the melting point is reported as 202 °C. Work on `NS(=O)(=O)c1cc(CCNC(=O)c2cnc3ccccc3c2)ccc1OCCOCC(F)(F)F` yielded a melting point of 206 to 210 °C. `NC(CSc1ccccc1N)=NO` showed a melting point of 80 °C. With `CC(=O)c1cccc2nnsc12` the melting point was 126 to 127 °C. In the case of `Cc1cc(Br)cc(C)c1OCCO`, the melting point is reported as 47 to 48 °C. In the case of `O=C(OC1CCN(c2ncc(-c3ccccc3Cl)cn2)CC1)N1CCC(O)CC1`, the melting point is reported as 124 to 126 °C. Work on `Cc1noc(NS(=O)(=O)c2ccccc2-c2ccc(-c3ncco3)cc2Cn2ccc(-c3ccccc3)n2)c1C` yielded a melting point of 164 to 168 °C. In the case of `O=C(O)Cn1c(=O)c(=O)[nH]c2cc(Br)ccc21`, the melting point is reported as > 320 °C. `COc1cc(COc2nn(C)cc2C(=O)O)ccc1OCc1nc(-c2ccccc2)oc1C` showed a melting point of 169 to 170 °C. Work on `COc1ccc(/C=C/c2ccc3c(Nc4cc(OC)c(Cl)cc4Cl)c(C#N)cnc3c2)cc1` yielded a melting point of 216 to 220 °C. For `Cc1oc(-c2ccc(C(F)(F)F)cc2)nc1-c1cccc(-c2ccc(OC(Cc3ccccc3)C(=O)O)cc2)c1` (centres undefined), the melting point was 148 to 149 °C. Work on `c1ccc2cc(CC[C@H]3CNCCN3)ccc2c1` yielded a melting point of 151 to 154 °C. `COc1cccc(CCOc2cccc(-c3cccc(C(=O)NCCNC(=O)OC(C)(C)C)c3)n2)c1` gave a melting point of 128 to 129 °C. Work on `CNC(=O)C(NC(=O)c1ccc(F)cc1C(F)(F)F)C(O)CO` (centres undefined) yielded a melting point of 163 °C. `CC(=O)OC[C@H]1CCn2c(cc3ccccc32)C1` gave a melting point of 63 to 64 °C. For `Cc1ccc2c(c1)C(C(=O)O)c1ccccc1CO2` (centres undefined), the melting point was 183 to 184 °C. For `CCOC(=O)c1ccc2nccc(Cl)c2c1`, the melting point was 84 to 85 °C. For `CC(O)=C(C#N)C(=O)Nc1cccc(S(C)(=O)=O)c1`, the melting point was 213 to 214 °C. For `O=C(Nc1ccc(NCCCO)nc1)c1cc2cc(C(F)(F)F)cnc2n1Cc1cccc(F)c1`, the melting point was 207 to 210 °C. For `COc1ccc2ncc(C(N)=O)cc2c1`, the melting point was 93.7 to 95.7 °C.
